# In US20250381157A1, “ANTIMICROBIAL COMPOUNDS” (priority 2022, published 2025):
# Like-named read-outs stand apart in the source and are kept apart here.
# How the values were obtained:
# [1] = biological target: T1, recombinant human HDAC3 (Homo sapiens, UniProt O15379); assay: HDAC3 in-vitro enzymatic assay; type: biochemical
# T1 construct: purchased BPS 50003
# Description: (§1) All of the compounds were dissolved in DMSO. A series of dilutions of the compounds were prepared with 10% DMSO in HDAC assay buffer and 5 μl of the dilution was added to a 50 μl reaction so that the final concentration of DMSO was 1% in all of reactions. The compounds were pre-incubated in duplicate at RT for 30 minutes in a mixture containing HDAC assay buffer, 5 μg BSA, HDAC enzyme and a test compound. After 30 minutes, the enzymatic reactions were initiated by the addition of HDAC substrate to a final concentration of 20 μM or 2 μM. The enzymatic reaction proceeded for 30 minutes at 37° C. After enzymatic reactions, 50 μl of 2×HDAC Developer was added to each well for the HDAC enzymes and the plate was incubated at room temperature for an additional 15 minutes. Fluorescence intensity was measured at an excitation of 360 nm and an emission of 460 nm using a Tecan Infinite M1000 microplate reader.
# (§2) HDAC activity assays were performed in duplicates at each concentration. The fluorescent intensity data were analyzed using the computer software, Graphpad Prism. […] The percent activity in the presence of each compound was calculated according to the following equation: % activity=(F−Fb)/(Ft−Fb), where F=the fluorescent intensity in the presence of the compound. […] The IC50 value was determined by the concentration causing a half-maximal percent activity.
# [2] = biological target: T2, recombinant human HDAC9 (Homo sapiens, UniProt Q9UKV0); assay: HDAC9 in-vitro enzymatic assay; type: biochemical
# T2 construct: purchased BPS 50009
# Description: as §1, §2
# [3] = biological target: T3, recombinant human HDAC4 (Homo sapiens, UniProt P56524); assay: HDAC4 in-vitro enzymatic assay; type: biochemical
# T3 construct: purchased BPS 50004
# Description: as §1, §2
# [4] = biological target: T4, recombinant human HDAC5 (Homo sapiens, UniProt Q9UQL6); assay: HDAC5 in-vitro enzymatic assay; type: biochemical
# T4 construct: purchased BPS 50005
# Description: as §1, §2
# [5] = biological target: T5, recombinant human HDAC6 (Homo sapiens, UniProt Q9UBN7); assay: HDAC6 in-vitro enzymatic assay; type: biochemical
# T5 construct: purchased BPS 50006
# T5 sequence (Q9UBN7 1-1215): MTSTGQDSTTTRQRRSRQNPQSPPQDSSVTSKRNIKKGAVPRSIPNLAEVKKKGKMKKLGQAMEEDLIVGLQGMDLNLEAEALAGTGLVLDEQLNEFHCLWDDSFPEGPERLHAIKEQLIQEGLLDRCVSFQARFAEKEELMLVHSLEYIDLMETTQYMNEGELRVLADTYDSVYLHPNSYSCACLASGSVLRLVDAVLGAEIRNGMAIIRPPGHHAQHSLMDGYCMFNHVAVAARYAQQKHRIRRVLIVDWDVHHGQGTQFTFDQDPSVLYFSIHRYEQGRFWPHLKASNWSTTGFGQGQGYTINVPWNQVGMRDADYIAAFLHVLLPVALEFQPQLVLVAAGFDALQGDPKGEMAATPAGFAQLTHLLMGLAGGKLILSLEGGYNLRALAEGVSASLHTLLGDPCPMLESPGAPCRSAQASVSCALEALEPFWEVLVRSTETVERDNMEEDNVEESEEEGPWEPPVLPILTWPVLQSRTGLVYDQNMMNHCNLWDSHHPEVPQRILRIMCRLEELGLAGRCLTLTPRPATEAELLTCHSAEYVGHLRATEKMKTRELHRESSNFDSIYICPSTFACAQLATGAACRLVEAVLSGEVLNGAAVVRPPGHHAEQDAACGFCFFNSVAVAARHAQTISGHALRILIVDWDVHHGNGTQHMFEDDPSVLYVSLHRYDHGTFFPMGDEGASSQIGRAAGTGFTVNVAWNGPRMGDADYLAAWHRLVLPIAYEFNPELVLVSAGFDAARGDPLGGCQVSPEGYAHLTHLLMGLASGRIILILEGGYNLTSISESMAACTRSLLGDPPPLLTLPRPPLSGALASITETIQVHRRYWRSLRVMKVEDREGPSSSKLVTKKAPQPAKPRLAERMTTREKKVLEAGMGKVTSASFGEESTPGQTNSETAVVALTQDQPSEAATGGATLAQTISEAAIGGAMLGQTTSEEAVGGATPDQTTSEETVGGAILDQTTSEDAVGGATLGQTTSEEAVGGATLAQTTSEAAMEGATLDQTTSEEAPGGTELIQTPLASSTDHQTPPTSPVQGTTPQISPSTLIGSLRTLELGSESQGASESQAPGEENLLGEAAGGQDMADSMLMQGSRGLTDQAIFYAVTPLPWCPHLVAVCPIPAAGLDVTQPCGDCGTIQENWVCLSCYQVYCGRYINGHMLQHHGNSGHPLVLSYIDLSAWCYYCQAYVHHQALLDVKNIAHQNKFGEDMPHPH
# Description: The purpose of the study is to determine the effects of Compound 1 on the enzymatic activities of recombinant human HDAC1, HDAC2, HDAC3, HDAC4, HDAC5, HDAC6, HDAC7, HDAC8, and HDAC9 using in-vitro enzymatic assays.
# as §1, with “After enzymatic reactions, 50 μl of 2×HDAC Developer was added to each well for the HDAC enzymes and the plate was incubated at room temperature for an additional 15 minutes.” left out
# as §2
# [6] = Plasma stability Rat; type: in vitro ADME
# [7] = in vivo; conditions: mouse, po
# [8] = biological target: T6, recombinant human HDAC1 (Homo sapiens, UniProt Q13547); assay: HDAC1 in-vitro enzymatic assay; type: biochemical
# T6 construct: purchased BPS 50051
# Description: as §1, §2
# [9] = tested on: bacteria in culture; assay: in vitro toxicity to bacteria in culture; type: cell-based
# [10] = Dose escalation toxicity and MTD in mouse; conditions: in vivo
# [11] = Rat pharmacokinetics (IV, PO); type: in vivo
# T3 sequence (P56524 whole entry): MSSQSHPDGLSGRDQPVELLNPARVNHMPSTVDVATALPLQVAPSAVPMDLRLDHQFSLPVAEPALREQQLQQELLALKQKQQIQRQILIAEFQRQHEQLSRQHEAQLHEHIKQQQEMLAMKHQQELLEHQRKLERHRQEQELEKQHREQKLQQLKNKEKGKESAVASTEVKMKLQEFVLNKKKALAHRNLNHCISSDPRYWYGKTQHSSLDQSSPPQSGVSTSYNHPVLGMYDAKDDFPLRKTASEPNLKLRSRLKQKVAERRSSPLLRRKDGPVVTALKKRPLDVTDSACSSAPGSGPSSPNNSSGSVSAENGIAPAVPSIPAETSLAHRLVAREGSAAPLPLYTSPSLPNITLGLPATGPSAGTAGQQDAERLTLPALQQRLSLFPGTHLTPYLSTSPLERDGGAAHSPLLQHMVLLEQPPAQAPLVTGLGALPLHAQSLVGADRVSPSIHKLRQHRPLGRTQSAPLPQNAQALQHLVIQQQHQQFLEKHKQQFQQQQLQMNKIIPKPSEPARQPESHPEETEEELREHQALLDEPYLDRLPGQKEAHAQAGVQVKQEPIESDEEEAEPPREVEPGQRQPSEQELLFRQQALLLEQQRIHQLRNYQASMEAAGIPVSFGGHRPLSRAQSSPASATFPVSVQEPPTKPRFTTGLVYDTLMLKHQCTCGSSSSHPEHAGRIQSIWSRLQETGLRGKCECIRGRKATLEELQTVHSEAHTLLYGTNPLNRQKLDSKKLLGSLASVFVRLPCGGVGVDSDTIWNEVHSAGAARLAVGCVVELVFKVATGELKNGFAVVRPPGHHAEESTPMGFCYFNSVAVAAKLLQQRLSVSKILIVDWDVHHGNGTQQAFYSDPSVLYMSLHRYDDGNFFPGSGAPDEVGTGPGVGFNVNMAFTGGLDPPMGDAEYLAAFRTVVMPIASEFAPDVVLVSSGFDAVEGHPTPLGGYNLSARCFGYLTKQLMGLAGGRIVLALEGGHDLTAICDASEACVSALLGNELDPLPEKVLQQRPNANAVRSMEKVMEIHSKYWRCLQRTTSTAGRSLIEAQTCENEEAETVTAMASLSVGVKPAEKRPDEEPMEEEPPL
# T1 sequence (O15379 whole entry): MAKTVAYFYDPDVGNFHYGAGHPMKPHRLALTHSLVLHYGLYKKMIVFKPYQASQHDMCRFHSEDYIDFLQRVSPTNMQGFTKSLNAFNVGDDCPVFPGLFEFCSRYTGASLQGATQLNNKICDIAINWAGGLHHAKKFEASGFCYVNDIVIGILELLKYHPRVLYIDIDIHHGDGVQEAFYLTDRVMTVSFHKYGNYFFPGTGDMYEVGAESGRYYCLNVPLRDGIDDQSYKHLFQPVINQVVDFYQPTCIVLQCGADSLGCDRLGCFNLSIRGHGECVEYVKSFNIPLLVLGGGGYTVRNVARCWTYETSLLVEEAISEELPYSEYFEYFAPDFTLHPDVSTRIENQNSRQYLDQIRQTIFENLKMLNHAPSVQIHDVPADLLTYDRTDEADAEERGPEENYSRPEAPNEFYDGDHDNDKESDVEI
# T1 sequence (Q9Y618 395-489 partner limits assumed): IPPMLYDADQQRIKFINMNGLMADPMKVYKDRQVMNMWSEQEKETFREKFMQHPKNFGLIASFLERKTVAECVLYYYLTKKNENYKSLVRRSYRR
# T2 sequence (Q9UKV0 whole entry): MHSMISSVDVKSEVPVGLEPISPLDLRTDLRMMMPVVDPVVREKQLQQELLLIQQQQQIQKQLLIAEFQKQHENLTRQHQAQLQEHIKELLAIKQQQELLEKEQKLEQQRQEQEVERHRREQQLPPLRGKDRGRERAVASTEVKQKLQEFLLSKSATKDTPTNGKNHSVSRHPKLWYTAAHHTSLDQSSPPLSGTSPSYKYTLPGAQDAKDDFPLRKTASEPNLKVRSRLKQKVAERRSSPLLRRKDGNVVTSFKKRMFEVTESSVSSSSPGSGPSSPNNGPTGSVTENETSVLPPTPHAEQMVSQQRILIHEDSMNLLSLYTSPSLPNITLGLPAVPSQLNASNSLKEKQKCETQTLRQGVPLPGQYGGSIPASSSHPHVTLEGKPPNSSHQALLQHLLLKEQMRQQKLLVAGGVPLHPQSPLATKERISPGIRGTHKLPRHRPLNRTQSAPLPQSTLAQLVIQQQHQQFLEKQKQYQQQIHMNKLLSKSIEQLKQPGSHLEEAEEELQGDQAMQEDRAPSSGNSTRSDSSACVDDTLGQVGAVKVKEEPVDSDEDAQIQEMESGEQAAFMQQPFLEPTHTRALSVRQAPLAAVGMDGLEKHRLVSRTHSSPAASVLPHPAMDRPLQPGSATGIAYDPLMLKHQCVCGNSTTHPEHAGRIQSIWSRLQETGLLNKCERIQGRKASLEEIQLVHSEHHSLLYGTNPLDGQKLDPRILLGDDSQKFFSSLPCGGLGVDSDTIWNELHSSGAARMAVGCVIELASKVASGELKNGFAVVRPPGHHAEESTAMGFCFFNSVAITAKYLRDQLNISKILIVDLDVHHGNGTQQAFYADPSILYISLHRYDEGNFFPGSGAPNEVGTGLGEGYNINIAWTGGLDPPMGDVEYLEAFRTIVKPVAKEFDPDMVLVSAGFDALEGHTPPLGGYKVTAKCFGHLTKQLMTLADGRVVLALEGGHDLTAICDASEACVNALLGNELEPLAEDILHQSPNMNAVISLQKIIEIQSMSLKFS
# T4 sequence (Q9UQL6 whole entry): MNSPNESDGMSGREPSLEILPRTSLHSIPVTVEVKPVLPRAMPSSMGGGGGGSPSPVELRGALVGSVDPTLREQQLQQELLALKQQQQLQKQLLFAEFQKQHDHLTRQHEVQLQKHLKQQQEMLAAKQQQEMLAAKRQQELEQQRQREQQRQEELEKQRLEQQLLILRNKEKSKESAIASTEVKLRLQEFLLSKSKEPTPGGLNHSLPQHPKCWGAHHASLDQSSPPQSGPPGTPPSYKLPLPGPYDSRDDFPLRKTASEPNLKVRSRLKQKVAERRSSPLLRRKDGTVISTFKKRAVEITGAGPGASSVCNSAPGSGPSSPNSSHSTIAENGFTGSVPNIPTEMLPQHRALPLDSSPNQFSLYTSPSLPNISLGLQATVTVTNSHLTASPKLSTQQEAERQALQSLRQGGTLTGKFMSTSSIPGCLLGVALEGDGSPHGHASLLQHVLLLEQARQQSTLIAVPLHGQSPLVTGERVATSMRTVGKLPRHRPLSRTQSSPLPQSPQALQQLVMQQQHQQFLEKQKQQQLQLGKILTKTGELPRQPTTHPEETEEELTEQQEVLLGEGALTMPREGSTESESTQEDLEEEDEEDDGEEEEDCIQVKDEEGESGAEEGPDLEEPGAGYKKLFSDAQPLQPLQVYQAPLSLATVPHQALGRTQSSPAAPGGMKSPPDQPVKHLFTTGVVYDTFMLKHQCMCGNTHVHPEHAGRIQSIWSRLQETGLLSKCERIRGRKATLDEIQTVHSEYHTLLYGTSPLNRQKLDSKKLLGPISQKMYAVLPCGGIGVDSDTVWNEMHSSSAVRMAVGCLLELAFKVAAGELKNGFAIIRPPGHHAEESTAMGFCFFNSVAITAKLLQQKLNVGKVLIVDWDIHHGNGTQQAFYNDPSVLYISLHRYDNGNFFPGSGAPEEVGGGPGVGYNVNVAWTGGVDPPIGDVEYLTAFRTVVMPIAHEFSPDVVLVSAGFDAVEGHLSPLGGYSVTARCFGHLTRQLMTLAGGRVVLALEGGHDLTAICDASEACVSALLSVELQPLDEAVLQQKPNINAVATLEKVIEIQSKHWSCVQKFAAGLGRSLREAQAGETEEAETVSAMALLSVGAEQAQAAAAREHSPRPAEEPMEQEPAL
# T6 sequence (Q13547 whole entry): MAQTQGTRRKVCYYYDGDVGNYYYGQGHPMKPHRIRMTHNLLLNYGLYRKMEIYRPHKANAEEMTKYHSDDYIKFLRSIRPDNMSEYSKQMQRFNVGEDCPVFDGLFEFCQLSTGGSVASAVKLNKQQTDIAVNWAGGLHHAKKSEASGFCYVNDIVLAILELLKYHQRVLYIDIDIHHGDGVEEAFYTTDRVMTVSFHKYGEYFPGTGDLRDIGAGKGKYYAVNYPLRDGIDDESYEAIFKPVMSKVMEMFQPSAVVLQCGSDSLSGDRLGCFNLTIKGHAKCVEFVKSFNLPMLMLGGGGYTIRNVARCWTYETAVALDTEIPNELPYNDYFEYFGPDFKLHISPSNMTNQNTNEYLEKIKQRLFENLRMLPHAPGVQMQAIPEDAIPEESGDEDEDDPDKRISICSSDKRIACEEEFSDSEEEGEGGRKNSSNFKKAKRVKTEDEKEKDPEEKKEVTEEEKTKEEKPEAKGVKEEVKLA
smiles,measurement,setting,value
"C#CCOCC(=O)Nc1ccc(C(=O)Nc2ccccc2N)cc1 [Compound 1, N-(2-aminophenyl)-4-{2-[(prop-2-yn-1-yl)oxy]acetamido}benzamide]",IC50,[1],≤ 1 µM
same,inhibition at 1 µM,"[1]; @ 1 μM, read-out: Inhib. HDAC3",61%
same,IC50,[2],> 200 µM
same,Inhib. HDAC9,[2]; @ 200 μM,No Inhib. @ 200 μM
same,IC50,[3],> 200 µM
same,Inhib. HDAC4,[3]; @ 200 μM,No Inhib. @ 200 μM
same,IC50,[4],> 200 µM
same,Inhib. HDAC5,[4]; @ 200 μM,No Inhib. @ 200 μM
same,IC50,[5],> 200 µM
same,Inhib. HDAC6,[5]; @ 200 μM,No Inhib. @ 200 μM
same,Plasma stability Rat,[6],High
same,MTD at 7 days,[7]; 7 Days PO once daily MTD - mouse,> 50 mg/kg
same,MTD at 7 days,[7]; 7 Days PO twice daily MTD - mouse,50 mg/kg
same,IC50,[8],< 1 µM
same,inhibition at 1 µM,"[8]; @ 1 μM, read-out: Inhib. HDAC1",75%
same,toxicity to bacteria in culture,[9],not toxic
same,Dose Esc. Tox mouse iv,[10]; iv,100 mg/kg
same,Dose Esc. Tox mouse PO,[10]; po,50 mg/kg
same,C_max IV - rat,[11]; IV,177 µM
same,V-d IV - rat,[11]; IV,0.565 L/kg
same,C_max PO - rat,[11]; PO,3.3 µM
same,half-life,"[11]; in vivo, PO, read-out: Elimination T½ (min) PO - rat",34 min
same,half-life,"[11]; in vivo, intravenous, PIV, read-out: Elimination T½ (min) PIV - rat",66 min
same,bioavailability,"[11]; in vivo, oral",1%
